Data from ChEMBL document CHEMBL4376842, “Synthesis and Biological Evaluation of Subglutinol Analogs for Immunomodulatory Agents” (J Med Chem, 2020).
The source made the active and inactive calls. The calls are words filed in the database; no cut-off is given here.

Key:
Mus musculus [1] = organism: Mus musculus; test: (§1) Immunosuppressive activity in OT2 mouse CD4-positive T cells derived OVA(323 to 339)-activated Th-differentiating media cultured Th1 cells assessed as reduction in pDBU/ionomycin-stimulated IFNgamma production treated last 2 days of 5 days differentiation followed by pDBU/ionomycin stimulation on day 5 measured after 4 hrs by anti-mouse IFNgamma-Pacific Blue/IL-2-APC staining based flow cytometry; assay type: functional
[2] = as §1, with “production at late stage by measuring INFgamma level at 10 uM” for “production”, “cytometry (reference value: 4.34%)” for “cytometry”; assay type: functional; set-up: scale not given: the % may be the effect or the level left
[3] = as §1, with “production at late stage by measuring INFgamma level at 100 nM” for “production”, “cytometry (reference value: 4.34%)” for “cytometry”; assay type: functional; set-up: scale not given: the % may be the effect or the level left
[4] = as §1, with “Th17” for “Th1”, “1L17A” for “IFNgamma”, “production by measuring IL17A level at 10 uM” for “production”, “IL17A-APC” for “IFNgamma-Pacific Blue/IL-2-APC”, “cytometry (reference value: 1.44%)” for “cytometry”; assay type: functional; set-up: scale not given: the % may be the effect or the level left
[5] = as §1, with “Th17” for “Th1”, “1L17A” for “IFNgamma”, “production by measuring IL17A level at 100 nM” for “production”, “IL17A-APC” for “IFNgamma-Pacific Blue/IL-2-APC”, “cytometry (reference value: 1.44%)” for “cytometry”; assay type: functional; set-up: scale not given: the % may be the effect or the level left
[6] = as §1, with “production at early stage by measuring INFgamma level at 10 uM” for “production”, “cytometry (reference value: 57.3%)” for “cytometry”; assay type: functional; set-up: scale not given: the % may be the effect or the level left
[7] = as §1, with “production at early stage by measuring INFgamma level at 100 nM” for “production”, “cytometry (reference value: 57.3%)” for “cytometry”; assay type: functional; set-up: scale not given: the % may be the effect or the level left
[8] = Cytotoxicity against OT2 mouse CD4-positive T cells assessed as cell viability at 10 uM measured after 48 hrs by live/dead viability staining based flow cytometry (reference value: 57.2%); conditions: read-out: Activity
[9] = Cytotoxicity against OT2 mouse CD4-positive T cells assessed as cell viability at 100 nM measured after 48 hrs by live/dead viability staining based flow cytometry (reference value: 57.2%); conditions: read-out: Activity
[10] = Cytotoxicity against OT1 mouse CD8-positive T cells assessed as cell viability at 10 uM measured after 48 hrs by live/dead viability staining based flow cytometry (reference value: 39.5%); conditions: read-out: Activity
[11] = Cytotoxicity against OT1 mouse CD8-positive T cells assessed as cell viability at 100 nM measured after 48 hrs by live/dead viability staining based flow cytometry (reference value: 39.5%); conditions: read-out: Activity
Mus musculus [12] = organism: Mus musculus; test: as §1, with “production up to 10 uM” for “production”; assay type: functional
Mus musculus [13] = organism: Mus musculus; test: as §1, with “Th17” for “Th1”, “[…]” for “IFNgamma”, “production up to 10 uM” for “production”, “IL17A-APC” for “IFNgamma-Pacific Blue/IL-2-APC”; assay type: functional
[14] = Toxicity in MOG/CFA/Ptx-induced C57B/6 mouse model of experimental autoimmune encephalitis assessed as adverse changes at 4 umol, ip administered on day 4, 6, and 8 starting from 2 days post-disease induction and measured up to 50 days; assay type: organism-based; conditions: in vivo
Mus musculus [15] = test: Immunosuppressive activity in MOG/CFA/Ptx-induced C57B/6 mouse model of experimental autoimmune encephalitis assessed as decrease in clinical symptoms at 4 umol, ip administered on day 4, 6, and 8 starting from 2 days post-disease induction and measured daily up to 50 days; assay type: functional, organism-based
Mus musculus [16] = test: Immunosuppressive activity in MOG/CFA/Ptx-induced C57B/6 mouse model of experimental autoimmune encephalitis assessed as time of disease onset at 4 umol, ip administered on day 4, 6, and 8 starting from 2 days post-disease induction and measured daily up to 50 days; assay type: functional
Mus musculus [17] = test: (§2) Immunosuppressive activity in MOG/CFA/Ptx-induced C57B/6 mouse model of experimental autoimmune encephalitis assessed as change in T cell composition at 4 umol, ip administered on day 4 and 6 starting from 2 days post-disease induction and measured on day 7 post-last disease induction by immunostaining-based flow cytometry; assay type: functional, organism-based
Mus musculus [18] = test: as §2, with “dendritic” for “T”; assay type: functional, organism-based
Mus musculus [19] = test: as §2, with “change in regulatory T cell” for “change in T cell”; assay type: functional, organism-based
Mus musculus [20] = test: as §2, with “macrophage” for “T cell”; assay type: functional, organism-based
Mus musculus [21] = test: as §2, with “neutrophil” for “T cell”; assay type: functional, organism-based
Mus musculus [22] = test: as §2, with “granulocytic myeloid-derived suppressor” for “T”; assay type: functional, organism-based
Mus musculus [23] = test: as §2, with “live cells” for “change in T cell composition”, “live/dead staining-based” for “immunostaining-based”, “cytometry (reference value: 87.5%)” for “cytometry”; assay type: functional
Mus musculus [24] = test: as §2, with “CD11b+ F4/80+ cells” for “change in T cell composition”, “cytometry (reference value: 15%)” for “cytometry”; assay type: functional
Mus musculus [25] = test: as §2, with “macrophage cells” for “change in T cell composition”, “cytometry (reference value: 10.5%)” for “cytometry”; assay type: functional
Mus musculus [26] = test: as §2, with “granulocytic myeloid-derived suppressor cells” for “change in T cell composition”, “cytometry (reference value: 28.1%)” for “cytometry”; assay type: functional
Mus musculus [27] = test: as §2, with “inflammatory neutrophil cells” for “change in T cell composition”, “cytometry (reference value: 35.2%)” for “cytometry”; assay type: functional

In the case of `C=C1CC[C@H]2[C@]3(C)C[C@@H](C=C(C)C)O[C@H]3CC[C@]2(C)[C@@H]1Cc1c(O)c(C)c(C)oc1=O` [SUBGLUTINOL A], the Activity (Mus musculus [1]) is reported as “Dose-dependent effect”, the Activity [2] is reported as 0% and the Activity [3] is reported as 0%. It also gave an Activity [4] of 0.064%, an Activity [5] of 0.017% and an Activity [6] of 1.54%. For the same compound, the Activity [7] was 0.84%, the viability at 48 h, 10 µM [8] was 24.4% and the viability at 48 h, 0.1 µM [9] was 46%. For the same compound, the viability at 48 h, 10 µM [10] was 7.19% and the viability at 48 h, 0.1 µM [11] was 14.5%.

In the case of `Cc1oc(=O)c(C[C@H]2CCC[C@H]3CCCC[C@@]32C)c(O)c1C`, the Activity (Mus musculus [12]) is reported as “Active” and the Activity (Mus musculus [13]) is reported as “Active”.

With `Cc1oc(=O)c(C[C@@H]2CCC[C@H]3CCCC[C@@]32C)c(O)c1C` the Activity [2] was 0%, the Activity [3] was 1.03% and the Activity [4] was 2.01%. It also gave an Activity [5] of 1.33%, an Activity [6] of 0.47% and an Activity [7] of 18.7%. For the same compound, the viability at 48 h, 10 µM [8] was 41.5%, the viability at 48 h, 0.1 µM [9] was 60.6% and the viability at 48 h, 10 µM [10] was 8.85%. The viability at 48 h, 0.1 µM [11] was 42.6%, the Activity [14] was “Non-Toxic” and the Activity (Mus musculus [15]) was “inactive”. For the same compound, the Time (Mus musculus [16]) was 15 days, the Activity (Mus musculus [17]) was “inactive” and the Activity (Mus musculus [18]) was “inactive”. For the same compound, the Activity (Mus musculus [19]) was “inactive”, the Activity (Mus musculus [20]) was “inactive” and the Activity (Mus musculus [21]) was “inactive”. The Activity (Mus musculus [22]) was “inactive”, the Activity (Mus musculus [23]) was 88.8% and the Activity (Mus musculus [24]) was 11%. The Activity (Mus musculus [25]) was 4%, the Activity (Mus musculus [26]) was 2.41% and the Activity (Mus musculus [27]) was 74.7%.

For `C=C1CC[C@H]2[C@]3(C)C[C@@H](C=C(C)C)O[C@H]3CC[C@]2(C)[C@@H]1Cc1ccccc1`, the Activity (Mus musculus [12]) was “Active” and the Activity (Mus musculus [13]) was “Active”.

In the case of `CC(C)=CC1Cc2c(ccc3c(Cc4c(O)c(C)c(C)oc4=O)cccc23)O1` (stereo not given), the Activity (Mus musculus [12]) is reported as “Active” and the Activity (Mus musculus [13]) is reported as “Active”.

For `CC[C@@H]1C[C@@]2(C)[C@@H]3CCC[C@@H](Cc4c(O)c(C)c(C)oc4=O)[C@@]3(C)CC[C@@H]2O1`, the Activity (Mus musculus [12]) was “Active” and the Activity (Mus musculus [13]) was “Active”.

In the case of `CC[C@@H]1C[C@@]2(C)[C@@H]3CCC[C@H](Cc4c(O)c(C)c(C)oc4=O)[C@@]3(C)CC[C@@H]2O1`, the Activity (Mus musculus [12]) is reported as “Active” and the Activity (Mus musculus [13]) is reported as “Active”.
